Among the data in ChEMBL document CHEMBL3400060, “Nucleobase modified neamines with a lysine as a linker, their inhibition specificity for TAR-Tat derived from HIV-1” (Bioorg Med Chem, 2015) are Kd values, retold here.

Assay [1] can be described thus: Binding affinity to HIV-1 RRE RNA by fluorescence anisotropy. Also on record: species or system Human immunodeficiency virus 1. (In general: In fluorescence polarisation assays a small probe gives low polarisation when free and higher when bound to something large.)
The target in another assay is Nucleic Acid. Nature of the assay: Binding affinity to HIV-1 TAR RNA by FRET assay. In kind it is nucleic-acid assay, Human immunodeficiency virus 1.

In general, Kd refers to the constant that tells how readily two partners part at equilibrium. Read a low Kd as tighter binding. Regarding `Nc1ncnc2c1ncn2CC(=O)NCCCC[C@H](N)C(=O)NC[C@H]1O[C@H](O[C@H]2[C@H](O)[C@@H](O)[C@H](N)C[C@@H]2N)[C@H](N)[C@@H](O)[C@@H]1O`, the results for the equilibrium dissociation constant (Kd) (in assay [1]; on Nucleic Acid) were 570 nM and 740 nM, respectively.
`NC[C@H]1O[C@H](O[C@H]2[C@H](O)[C@@H](O)[C@H](N)C[C@@H]2N)[C@H](N)[C@@H](O)[C@@H]1O` [NEAMINE] gave an equilibrium dissociation constant (Kd) in assay [1] of 5400 nM.
Take `Nc1nc2c(ncn2CC(=O)NCCCC[C@H](N)C(=O)NC[C@H]2O[C@H](O[C@H]3[C@H](O)[C@@H](O)[C@H](N)C[C@@H]3N)[C@H](N)[C@@H](O)[C@@H]2O)c(=O)[nH]1`: the Kd in assay [1] was determined as 530 nM; on Nucleic Acid, 240 nM.
Regarding `Nc1ccn(CC(=O)NCCCC[C@H](N)C(=O)NC[C@H]2O[C@H](O[C@H]3[C@H](O)[C@@H](O)[C@H](N)C[C@@H]3N)[C@H](N)[C@@H](O)[C@@H]2O)c(=O)n1`, the Kd in assay [1] worked out at 640 nM; on Nucleic Acid, 1400 nM.
As to `NCCCC[C@H](N)C(=O)NC[C@H]1O[C@H](O[C@H]2[C@H](O)[C@@H](O)[C@H](N)C[C@@H]2N)[C@H](N)[C@@H](O)[C@@H]1O`, in assay [1], the affinity, expressed as Kd, was 5700 nM.
Consider `Cc1cn(CC(=O)NCCCC[C@H](N)C(=O)NC[C@H]2O[C@H](O[C@H]3[C@H](O)[C@@H](O)[C@H](N)C[C@@H]3N)[C@H](N)[C@@H](O)[C@@H]2O)c(=O)[nH]c1=O`, for which the values for the Kd (in assay [1]; on Nucleic Acid) were 570 nM and 860 nM, respectively.
